{"source": "paper PMC6021032", "about": "“Antimycobacterial activity of nitrogen heterocycles derivatives: 7-(pyridine-4-yl)-indolizine derivatives. Part VII^8–12” (Journal of Enzyme Inhibition and Medicinal Chemistry, 2017)", "key": {"in vitro": {"test": "in vitro", "conditions": "human", "text": "The stability of compound is expressed as a function of time[41]^,[42]\n3.4. In vitro Microsomal Stability Assay\ncompound to detect NADPH-free degradation. Verapamil and dextromethorphan were\nincluded as control compounds."}, "[1]": {"tested_on": "THP-1 cell line infected with Mtb", "test": "Intracellular activity assay, luminescence", "type": "cell-based, Mycobacterium tuberculosis", "conditions": "Mycobacterium tuberculosis, Mtb-infected THP-1 cells, 72 h", "description": "Since the overall efficacy of any anti TB drug will be improved by its ability to traffic into the macrophage phagosome containing replicating bacteria, we evaluated the intracellular activity of compounds[24]. This was measured by using THP-1 cell line infected with Mtb. Infected cells were exposed to compounds for 72 h and viable bacterial counts were measured using luminescence as a measure of intracellular growth.\nAssay (Promega) which uses ATP as an indicator of cell viability. Relative luminescent units (RLU) were measured using a Biotek Synergy 4 plate reader. The dose response curve was fitted using the Levenberg–Marquardt algorithm. The IC50 was defined as the compound […]\nIntracellular Activity Assay\nThe activity of compounds against intracellular bacteria was determined by measuring viability in infected THP-1 cell after 3 days in the presence of test compounds. Compounds were prepared as 10-point three-fold serial dilutions in DMSO. The highest concentration of […]\nTHP-1 cells were cultured in complete RPMI and differentiated into macrophage-like cells using 80 nM PMA overnight at 37°C, 5% CO2. THP-1 cells were infected with a luminescent strain of H37Rv (which constitutively expresses luxABCDE) at a multiplicity of infection of 1 and incubated overnight at 37°C, 5% CO2. Infected cells were recovered using Accutase/EDTA solution, washed twice with PBS to remove extracellular bacteria and seeded into assay pates. Compound dilutions were added to a final DMSO concentration of 0.5%.\nAssay plates were incubated for 72 h at 37°C, 5% CO2. Each run included isoniazid as a control. Relative luminescent units (RLU) were measured using a Biotek Synergy 2 plate reader. The dose response curve was fitted using the Levenberg–Marquardt algorithm. The […]\ninhibition of growth respectively.\n3. Cycle 3 – Absorption, distribution, metabolism, excretion and toxicity (ADMET)\n3.1. Plasma Protein Binding Assay\nCompounds were added to human plasma at a fixed concentration of 5 µM. The mixture was dialyzed in a RED device (Rapid Equilibrium Dialysis, Pierce) against PBS and incubated on an orbital shaker for 4 h at 37 °C. Aliquots from plasma and PBS sides were collected; an equal volume of PBS was added to the plasma sample, and an equal volume of plasma was added to the PBS sample. Three volumes of methanol (containing the internal binding standard propranolol) was added to precipitate the proteins and release the compound.\nEach compound was tested in duplicate. Samples were centrifuged, the supernatant was […]"}, "[2]": {"tested_on": "Mycobacterium tuberculosis H37Rv", "test": "Primary screen (Cycle 1): MIC, IC50, IC90 under aerobic conditions", "type": "cell-based"}, "CYP2B6": {"target": "T1, CYP2B6 (Homo sapiens, UniProt P20813)", "T1 construct": "Compounds were incubated with human liver; from tissue; host or cells: human liver microsomes", "T1 sequence (P20813 1-491)": "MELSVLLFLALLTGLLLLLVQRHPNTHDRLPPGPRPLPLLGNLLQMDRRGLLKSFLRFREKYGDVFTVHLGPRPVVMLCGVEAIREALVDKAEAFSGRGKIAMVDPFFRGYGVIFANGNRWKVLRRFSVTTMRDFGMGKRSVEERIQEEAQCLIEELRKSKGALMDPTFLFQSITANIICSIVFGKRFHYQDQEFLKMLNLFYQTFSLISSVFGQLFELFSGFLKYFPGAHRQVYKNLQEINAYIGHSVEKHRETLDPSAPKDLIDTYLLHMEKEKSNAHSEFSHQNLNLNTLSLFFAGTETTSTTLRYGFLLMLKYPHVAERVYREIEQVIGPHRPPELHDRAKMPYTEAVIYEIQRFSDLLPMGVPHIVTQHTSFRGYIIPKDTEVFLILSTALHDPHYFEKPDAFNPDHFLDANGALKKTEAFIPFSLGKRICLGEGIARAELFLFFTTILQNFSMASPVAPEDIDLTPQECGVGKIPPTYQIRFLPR", "test": "Cytochrome P450 inhibition in human liver microsomes", "type": "in vitro ADME"}, "Mycobacterium avium": {"tested_on": "Mycobacterium avium", "test": "MIC against nontuberculous mycobacteria (Alamar blue)", "type": "cell-based", "conditions": "M. avium"}, "Mycobacterium abscessus": {"tested_on": "Mycobacterium abscessus", "test": "MIC, IC50, IC90 against nontuberculous mycobacteria (OD590)", "type": "cell-based", "conditions": "M. abscessus"}, "[3]": {"tested_on": "human liver cells (HepG2)", "test": "HepG2 cytotoxicity (CellTiter-Glo)", "type": "cell-based", "conditions": "read-out: IC50 (50% loss of viability), 72 h"}, "CYP2C8": {"target": "T2, CYP2C8 (Homo sapiens, UniProt P10632)", "T2 construct": "Compounds were incubated with human liver; from tissue; host or cells: human liver microsomes", "T2 sequence (P10632 1-490)": "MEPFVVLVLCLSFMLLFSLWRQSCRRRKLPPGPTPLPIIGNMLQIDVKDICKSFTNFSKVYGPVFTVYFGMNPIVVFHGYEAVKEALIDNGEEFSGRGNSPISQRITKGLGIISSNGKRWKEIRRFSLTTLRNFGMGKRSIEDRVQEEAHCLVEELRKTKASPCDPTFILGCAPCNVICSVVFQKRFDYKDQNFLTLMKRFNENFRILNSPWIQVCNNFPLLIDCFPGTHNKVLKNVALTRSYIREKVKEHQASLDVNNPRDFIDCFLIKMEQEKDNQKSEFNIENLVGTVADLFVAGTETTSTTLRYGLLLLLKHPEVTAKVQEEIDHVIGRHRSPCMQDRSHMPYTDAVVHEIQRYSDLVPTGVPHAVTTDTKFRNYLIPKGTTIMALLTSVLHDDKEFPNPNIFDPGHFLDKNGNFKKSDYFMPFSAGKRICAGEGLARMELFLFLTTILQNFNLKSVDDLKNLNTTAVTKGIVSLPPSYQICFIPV", "test": "Cytochrome P450 inhibition in human liver microsomes", "type": "in vitro ADME"}, "Mtb H37Rv": {"tested_on": "Mtb H37Rv", "test": "LORA parallel plates, oxygen-deprived bacteria incubated under aerobic conditions (normal oxygen)", "type": "cell-based, Mycobacterium tuberculosis", "conditions": "Mycobacterium tuberculosis, H37RV"}, "CYP2D6": {"target": "T3, CYP2D6 (Homo sapiens, UniProt P10635)", "T3 construct": "Compounds were incubated with human liver; from tissue; host or cells: human liver microsomes", "T3 sequence (P10635 whole entry)": "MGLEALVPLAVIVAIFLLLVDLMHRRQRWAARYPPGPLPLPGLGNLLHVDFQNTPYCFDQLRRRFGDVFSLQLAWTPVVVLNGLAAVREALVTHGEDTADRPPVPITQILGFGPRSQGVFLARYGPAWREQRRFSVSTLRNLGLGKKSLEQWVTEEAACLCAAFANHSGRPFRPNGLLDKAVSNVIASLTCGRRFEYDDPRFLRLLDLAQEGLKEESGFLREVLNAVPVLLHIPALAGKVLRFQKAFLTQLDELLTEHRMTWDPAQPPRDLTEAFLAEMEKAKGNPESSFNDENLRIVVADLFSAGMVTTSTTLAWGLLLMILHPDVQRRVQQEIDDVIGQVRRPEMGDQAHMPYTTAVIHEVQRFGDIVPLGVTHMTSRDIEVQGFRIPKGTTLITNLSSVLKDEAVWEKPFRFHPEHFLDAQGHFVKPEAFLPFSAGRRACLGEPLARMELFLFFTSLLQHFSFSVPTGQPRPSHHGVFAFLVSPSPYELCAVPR", "test": "Cytochrome P450 inhibition in human liver microsomes", "type": "in vitro ADME"}, "[4]": {"conditions": "Mycobacterium tuberculosis, M. tuberculosis H37Rv, aerobic conditions, primary screen"}}, "note": "Where two headings read alike, the source gives them in different places."}
{"smiles": "CCOC(=O)c1cc(C(=O)c2ccc(Cl)cc2)n2ccc(-c3cc[n+](CC(=O)c4ccc(C)cc4)cc3)cc12", "note": "[Compound 6i]", "values": [{"measurement": "NADPH-dependent CLint", "setting": "in vitro; s9", "result": "very highly cleared"}, {"measurement": "microsomal CLint at 1 μM", "setting": "in vitro; s9, NADPH-dependent CLint", "result": 369, "unit": "µL/min/mg"}, {"measurement": "half-life at 1 μM", "setting": "in vitro; s9, NADPH-dependent T1/2", "result": 6.3, "unit": "min"}, {"measurement": "microsomal CLint at 1 μM", "setting": "in vitro; s9, NADPH-free CLint", "result": "< 12.8", "unit": "µL/min/mg"}, {"measurement": "half-life at 1 μM", "setting": "in vitro; s9, NADPH-free T1/2", "result": "> 180", "unit": "min"}, {"measurement": "IC50", "setting": "[1]; read-out: IC50 intracell", "result": 10, "unit": "µM"}, {"measurement": "IC90", "setting": "[1]; read-out: IC90 intracell", "result": 48, "unit": "µM"}, {"measurement": "MIC", "setting": "[2]; M. tuberculosis H37Rv, aerobic conditions, primary screen", "result": 8.0, "unit": "µM"}, {"measurement": "MIC", "setting": "[2]; MIC value taken from the first MIC assay", "result": 8, "unit": "µM"}, {"measurement": "IC50", "setting": "[2]; [4]", "result": 7.2, "unit": "µM"}, {"measurement": "IC90", "setting": "[2]; [4]", "result": 8.2, "unit": "µM"}, {"measurement": "MIC", "setting": "[2]; [4]", "result": 8, "unit": "µM"}, {"measurement": "IC50", "setting": "CYP2B6", "result": "> 5", "unit": "µM"}, {"measurement": "MIC", "setting": "Mycobacterium avium", "result": 50, "unit": "µM"}, {"measurement": "MIC", "setting": "Mycobacterium avium; Mycobacterium avium", "result": 50, "unit": "µM"}, {"measurement": "MIC", "setting": "Mycobacterium abscessus", "result": "showed activity"}, {"measurement": "IC50", "setting": "Mycobacterium abscessus; Mycobacteroides abscessus", "result": 14, "unit": "µM"}, {"measurement": "IC90", "setting": "Mycobacterium abscessus; Mycobacteroides abscessus", "result": 23, "unit": "µM"}, {"measurement": "MIC", "setting": "Mycobacterium abscessus; Mycobacteroides abscessus, read-out: MIC", "result": 25, "unit": "µM"}, {"measurement": "IC50", "setting": "[3]", "result": 7, "unit": "µM"}, {"measurement": "IC50", "setting": "CYP2C8", "result": "> 5", "unit": "µM"}, {"measurement": "IC50", "setting": "Mtb H37Rv", "result": 6.5, "unit": "µM"}, {"measurement": "IC90", "setting": "Mtb H37Rv", "result": 28, "unit": "µM"}, {"measurement": "MIC", "setting": "Mtb H37Rv; 120 h, oxygen-deprived bacteria, aerobic 5 d", "result": 140, "unit": "µM"}, {"measurement": "IC50", "setting": "CYP2D6", "result": "> 5", "unit": "µM"}]}
